Reference: patent US10167285B2, “Small-molecule HSP90 inhibitors” (Memorial Sloan Kettering Cancer Center, priority 2005, dated 2019)

How the values were obtained:
[1] = test system: SKBr3 breast cancer cells; assay: Growth inhibition, sulforhodamine B assay; type: cell-based, human; conditions: Homo sapiens, SK-BR-3, 72 h, average of 3 measurements
Procedure: Cell culture. The human breast cancer cell lines SKBr3 and MDA-MB-468 were a gift from Dr. Neal Rosen (MSKCC). Cells were maintained in 1:1 mixture of DME:F12 supplemented with 2 mM glutamine, 50 units/mL penicillin, 50 […] and 10% heat inactivated fetal bovine serum (Gemini Bioproducts #100-10b) and incubated at 37° C., 5% CO2. Growth assays. Growth inhibition studies were performed using the sulforhodamine B assay as previously described.^29 In summary, experimental cultures were plated in microtiter plates (Nunc #167008). One column of wells was left without cells to serve as the blank control. Cells were allowed to attach overnight. The following day, growth medium having either drug or DMSO at twice the desired initial concentration was added to the plate in triplicate and was serially diluted at a 1:1 ratio in the microtiter plate. After 72 h of growth, the cell number in treated versus control wells was estimated after treatment with 50% trichloroacetic acid and staining with 0.4% sulforhodamine B in 1% acetic acid. […] Normal human renal proximal tubular epithelial (RPTEC) cells were purchased pre-seeded in 96-well plates (Clonetics, CC-3190). Upon receipt, cells were placed in a humidified incubator at 37° C., 5% CO2 and allowed to equilibrate for 3 h. Media was removed by suction and replaced with fresh media provided by the manufacturer. Cells were then treated with either drugs or DMSO for 72 h and the IC50 values were determined as described above.

[2] = test system: SKI-Chen; assay: Growth over 96 h in therapy-resistant SCLC cells; type: cell-based; conditions: from a patient who failed every conventional therapy
Procedure: (§1) Growth over 96 h was assessed.

[3] = test system: Hsp90 heart; assay: Hsp90 competition assay, heart homogenate
Procedure: (§3) Hsp90 competition assay. Fluorescence polarization measurements were performed on an Analyst AD instrument (Molecular Devices, Sunnyvale, Calif.). […] The assay buffer (HFB) contained 20 mM HEPES (K) pH 7.3, 50 mM KCl, 5 mM MgCl2, 20 mM Na2MoO4, 0.01% NP40. Before each use, 0.1 mg/mL bovine gamma globulin (BGG) (Panvera Corporation, Madison, Wis.) and 2 mM DTT (Fisher Biotech, Fair Lawn, N.J.) were freshly added. […] Cell lysates were prepared rupturing cellular membranes by freezing at −70° C. and dissolving the cellular extract in HFB with added protease and phosphotase inhibitors. Organs were harvested from a healthy mouse and homogenized in HFB. Saturation curves were recorded in which GM-BODIPY (5 nM) was treated with increasing amounts of cellular lysates.

[4] = test system: Hsp90 SKBr3; assay: Hsp90 competition assay, SKBr3 cell lysate; conditions: read-out: EC50 Hsp90 SKBr3
Procedure: Hsp90 competition assay. Fluorescence polarization measurements were performed on an Analyst AD instrument (Molecular Devices, Sunnyvale, Calif.). […] The assay buffer (HFB) contained 20 mM HEPES (K) pH 7.3, 50 mM KCl, 5 mM MgCl2, 20 mM Na2MoO4, 0.01% NP40. Before each use, 0.1 mg/mL bovine gamma globulin (BGG) (Panvera Corporation, Madison, Wis.) and 2 mM DTT (Fisher Biotech, Fair Lawn, N.J.) were freshly added. GM-BODIPY was synthesized as previously reported^23a and was dissolved in DMSO to form 10 μM solutions. Recombinant Hsp90α was purchased from Stressgen Bioreagents (cat. No. SPP-776), (Victoria, Canada). Cell lysates were prepared rupturing cellular membranes by freezing at −70° C. and dissolving the cellular extract in HFB with added protease and phosphotase inhibitors. […] Saturation curves were recorded in which GM-BODIPY (5 nM) was treated with increasing amounts of cellular lysates.

[5] = test system: Hsp90 client proteins (Raf-1, Akt), PARP cleavage; assay: Pharmacodynamics in small cell lung tumors; type: in vivo
[6] = test system: MDA-MB-468 cells; assay: Anti-mitotic assay (Tg-3 microtiter immunoassay); type: cell-based, human; conditions: 24 h, concentration dependent increase in Tg-3 luminescence
Procedure: Anti-mitotic assay. Black, clear-bottom microtiter 96-well plates (Corning Costar #3603) were used to accommodate experimental cultures. MDA-MB-468 cells were seeded in each well at 8,000 cells per well in growth medium (100 μL), and allowed to attach overnight at 37° C. and 5% CO2. Growth medium (100 μL) with drug or vehicle (DMSO) was gently added to the wells, and the plates were incubated at 37° C. and 5% CO2 for 24 h. Wells were washed with ice-cold TBST (2×200 μL). A house vacuum source attached to an eight-channel aspirator was used to remove the liquid from the 96-well plates. Ice-cold methanol (100 μL) was added to each well, and the plate was placed at 4° C. for 5 min. Methanol was removed by suction and plates were washed with ice-cold TBST (2×200 μL). Plates were further incubated with SuperBlock® blocking buffer (Pierce #37535) (200 μL) for 2 h at RT. The Tg-3 antibody (gift of Dr. Davies, Albert Einstein College of Medicine) diluted 1:200 in SuperBlock® was placed in each well (100 μL) except the control column that was treated with control antibody (Mouse IgM, NeoMarkers, NC-1030-P). After 72 h, wells were washed with ice-cold TBST (2×200 μL). […] Un-reacted antibody was removed by washing the plates with ice-cold TBST (3×200 μL) for 5 min on a shaker. The ECLTM Western Blotting Detection Reagents 1 and 2 in 1:1 mix (100 μL) was placed in each well and the plates were read immediately in an Analyst AD plate reader (Molecular Devices). Luminescence readings were imported into SOFTmax PROR 4.3.1. Anti-mitotic activity was defined as a concentration dependent increase in luminescence readings in compound-treated wells as compared to DMSO only treated wells.

[7] = test system: H69AR; assay: Growth over 96 h in adriamycin-resistant SCLC cells; type: cell-based; conditions: resistant to adriamycin
Procedure: as §1

[8] = test system: U87 glioma cells; assay: Clonogenic survival assay, radiosensitization; type: cell-based, human
Procedure: (§2) Colony forming efficiency was determined 10-12 days later and survival curves generated after normalizing for cell killing by Compound 9 alone. The results are summarized in FIG. 11A (Compound 9) and B (Compound 8).

[9] = test system: U251 glioma cells; assay: Clonogenic survival assay, radiosensitization; type: cell-based, human
Procedure: as §2

[10] = test system: Hsp90 lung; assay: Hsp90 competition assay, lung homogenate
Procedure: as §3

[11] = Solubility in PBS; type: physicochemical; conditions: aqueous buffer, acid addition salt form
Procedure: as §1

[12] = Plasma and tumor levels in small cell lung cancer model; conditions: tumor
[13] = Blood brain barrier penetration
[14] = test system: small cell lung tumors; assay: Tumor growth inhibition in small cell lung cancer model; type: in vivo

For CC(C)NCCCn1c(Sc2cc3c(cc2I)OCO3)nc2c(N)ncnc21 [Example 9, 8-(6-Iodo-benzo[1,3]dioxol-5-ylsulfanyl)-9-(3-isopropylamino-propyl)adenine], the IC50 [1] was 50 ± 5 nM, the “activity in resistant SCLC cell line” value [2] was “retains its activity” and the Heart/SKBr3 ([3]; ratio of EC50 Hsp90 values) was 140. For the same compound, the EC50 ([3]; read-out: EC50 Hsp90 heart, normal tissue) was 6900 ± 150 nM, the EC50 [4] was 50.4 ± 4 nM and the “apoptosis of the tumor (PARP cleavage)” value ([5]; FIG. 9C) was “induces significant apoptosis”. For the same compound, the “Raf-1 and Akt in tumor” value ([5]; one administered dose) was “efficiently degraded or inactivated”, the Anti-mitotic [6] was “Yes” and the “activity in resistant SCLC cell line” value [7] was “retains its activity”. For the same compound, the “surviving fraction after compound treatment only” value [8] was 0.68, the “surviving fraction after compound treatment only” value ([9]; U251 cells) was 0.86 and the dose enhancement factors ([9]; range across U251 and U87, 16 h exposure before X rays) was 1.4-1.6. The Lung/SKBr3 ([10]; ratio of EC50 Hsp90 values) was 48, the EC50 ([10]; read-out: EC50 Hsp90 lung, normal tissue) was 2400 ± 240 nM and the solubility [11] was over 5 mM. The “retention in tumors at pharmacologic doses” value [12] was “more than 36 h”, the “crossing of the blood brain barrier” value [13] was “ability to cross the blood brain barrier” and the tumor growth ([14]; comparable to 17AAG, FIG. 9D) was “efficiently inhibited the growth”. The “toxicity to the host” value ([14]; in vivo) was “without toxicity”.
